# Measurements as given in patent US11078207B2, “Substituted pyrrolo[2,3-d]pyrimidines as HER2 inhibitors” (TAIHO PHARMACEUTICAL CO., LTD., priority 2019, dated 2021).
# What was measured:
# [1] = molecular target: Ba/F3-HER2insYVMA cells (Homo sapiens, UniProt P04626, DUP772-775, cells depend on it); experiment: Growth inhibitory activity against HER2 exon 20 insertion mutant expressing cell line; type: cell-based, mouse; settings: 3 days, CellTiter-Glo 2.0, read-out: HER2ex20insYVMA cell growth inhibitory activity IC50 value
# Experimental: Growth inhibitory activity against the HER2 exon 20 insertion mutant was measured using Ba/F3 cells that were a mouse B lymphocyte precursor cell line, into which a human HER2 exon 20 insertion mutant gene had been introduced. The Ba/F3 cells were maintained in an RPMI-1640 medium (Thermo Fisher Scientific) supplemented with 10% fetal bovine serum (FBS), 100 U/mL penicillin, 100 μg/mL streptomycin (Thermo Fisher Scientific) and 1 ng/mL mouse interleukin-3 (mIL-3) (CST).
# Upon evaluation of cell growth inhibitory activity, the Ba/F3-HER2insYVMA cells were suspended in an RPMI-1640 medium supplemented with 10% FBS, 100 U/mL penicillin, and 100 μg/mL streptomycin. The cell suspension was seeded in each well of a 96-well flat-bottom microplate, and was then cultured in a 5% carbon dioxide gas-containing culture vessel at 37° C. for 1 day. The compound of the present invention was dissolved in DMSO, and was then diluted with DMSO or the medium used in the suspension of the cells. The obtained solution was then added to each well of the culture plate, so that the final concentration of DMSO became 0.2%. The obtained mixture was further cultured in the 5% carbon dioxide gas-containing culture vessel at 37° C. for 3 days. After completion of the culture for 3 days in the presence of the compound, the cells were counted using CellTiter-Glo 2.0 (manufactured by Promega), and the growth inhibition percentage was then calculated according to the following equation. […] Growth inhibitory percentage (%)=(C−T)/(C)×100 T: Emission intensity from the well to which the test compound was added C: Emission intensity from the well to which the test compound was not added
# [2] = test system: NCI-N87-Luc; experiment: Antitumor effect (in vivo) on direct brain transplantation models of NCI-N87-Luc; parameters: species or system nude mouse (BALB/cAJcl-nu/nu); settings: Days 1-21
# Source text: In order to confirm the antitumor effects of a test compound on direct brain transplantation models, NCI-N87-Luc, which was obtained by introducing a luciferase gene into NCI-N87 that was a human stomach cancer tumor cell line purchased from American Type Culture Collection, was used.
# The NCI-N87-Luc cells were re-suspended in PBS in a concentration of 6.25×10^7 cells/mL.
# Using a mouse ear bar, a nude mouse with 6 to 7 weeks old (BALB/cAJcl-nu/nu, CLEA Japan, Inc.) was fixed in a brain stereotaxic apparatus, and the skin on the upper brain portion was disinfected with alcohol cotton and was then excised with a surgical knife.
# A microdrill was used to drill a hole in the skull, and then, using a needle, a manipulator, and a syringe pump, 4 μL of the cell suspension was transplanted into the brain at a rate of 0.8 μL/min.
# As a reference of the amount of brain tumor, approximately 3 weeks after the transplantation, Total Flux (Photon/sec) was measured in all of the survival cases, using IVIS (PerkinElmer, Inc., model: Lumina II). Based on the obtained results, 6 animals were assigned to each group, using the grouping program of MiSTAT (Ver. 2.00).
# (§1) The test compound was orally administered to the mice once a day, every day, for 21 days from the following day of the grouping (Days 1-21).
# (§2) For judgment of the presence or absence of effects, the value (Log 10) obtained by logarithmic transformation of the total flux on the judgment date was used. The test compound was administered to the mice at a dose of 25 mg/kg/day in Example 2 and Example 11, whereas it was administered at a dose of 50 mg/kg/day in Example 12.
# A graph was prepared with the value obtained by logarithmic transformation (Log 10) of the average total flux of each group as a vertical axis, and with the number of days (Day) after the transplantation as a horizontal axis. The transition of the total flux over time in the drug administration period was observed. […]
# (§3) The value obtained by logarithmic transformation (Log 10) of the total flux on Day 22 in each group was analyzed by a Dunnett test or a Student-t test.
# [3] = Body weight change in NCI-N87-Luc direct brain transplantation models; type: in vivo, nude mouse (BALB/cAJcl-nu/nu); settings: oral 25 mg/kg/day, Days 1-21, nude mice
# Experimental: as §1, §2, §3
# Sequence of Ba/F3-HER2insYVMA cells (P04626 with tags, fused parts or gaps DUP772-775): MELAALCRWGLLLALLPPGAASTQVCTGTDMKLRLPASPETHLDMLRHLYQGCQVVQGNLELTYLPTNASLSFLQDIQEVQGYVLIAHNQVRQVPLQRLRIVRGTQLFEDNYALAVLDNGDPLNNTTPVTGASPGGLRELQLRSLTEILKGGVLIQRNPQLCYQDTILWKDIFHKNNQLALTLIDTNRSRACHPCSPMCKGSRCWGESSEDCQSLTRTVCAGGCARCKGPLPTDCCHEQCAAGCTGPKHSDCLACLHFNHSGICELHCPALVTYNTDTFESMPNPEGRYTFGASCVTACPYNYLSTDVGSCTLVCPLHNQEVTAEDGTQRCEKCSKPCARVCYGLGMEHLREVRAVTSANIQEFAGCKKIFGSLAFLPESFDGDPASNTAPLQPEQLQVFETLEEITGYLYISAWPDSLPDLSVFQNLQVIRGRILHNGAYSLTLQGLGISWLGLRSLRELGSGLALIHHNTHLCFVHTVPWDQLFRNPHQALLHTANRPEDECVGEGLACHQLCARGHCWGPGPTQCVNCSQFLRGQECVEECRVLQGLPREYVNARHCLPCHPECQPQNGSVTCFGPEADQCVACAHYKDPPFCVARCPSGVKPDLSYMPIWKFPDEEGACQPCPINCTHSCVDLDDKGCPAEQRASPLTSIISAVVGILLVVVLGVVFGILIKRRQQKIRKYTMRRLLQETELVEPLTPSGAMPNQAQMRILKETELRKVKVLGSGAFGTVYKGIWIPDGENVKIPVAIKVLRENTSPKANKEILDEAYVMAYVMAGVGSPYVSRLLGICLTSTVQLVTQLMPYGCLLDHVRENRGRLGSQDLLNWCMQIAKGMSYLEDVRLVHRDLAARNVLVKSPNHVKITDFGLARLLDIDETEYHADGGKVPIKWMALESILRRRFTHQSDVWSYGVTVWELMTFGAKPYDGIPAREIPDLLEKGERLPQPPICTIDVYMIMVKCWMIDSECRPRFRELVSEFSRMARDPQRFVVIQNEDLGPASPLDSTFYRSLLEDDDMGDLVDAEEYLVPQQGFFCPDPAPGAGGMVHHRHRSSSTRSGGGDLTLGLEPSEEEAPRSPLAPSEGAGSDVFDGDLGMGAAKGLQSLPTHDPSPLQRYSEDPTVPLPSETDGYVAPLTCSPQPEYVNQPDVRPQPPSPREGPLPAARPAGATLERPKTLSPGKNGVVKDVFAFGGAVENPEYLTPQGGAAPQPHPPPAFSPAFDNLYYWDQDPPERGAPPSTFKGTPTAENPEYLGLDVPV
SMILES,GI50 [1],also measured
"C=CC(=O)N1C[C@H](n2c(C#CC(C)(C)C)c(C(=O)N[C@H](C)c3ccccc3)c3c(N)ncnc32)C[C@@H]1C [Example 12, 7-((3R,5S)-1-acryloyl-5-methylpyrrolidin-3-yl)-4-amino-6-(3,3-dimethylbut-1-yn-1-yl)-N—((R)-1-phenylethyl)-7H-pyrrolo[2,3-d]pyrimidine-5-carboxamide]",43 nM,Log 10 of total flux on Day 22 versus control group ([2]; oral 50 mg/kg/day once a day): statistically significantly lower
"C=CC(=O)N1C[C@H](n2c(C#CC)c(C(=O)N[C@H](C)c3cccc(Cl)c3)c3c(N)ncnc32)C[C@@H]1C [Example 6, 7-((3R,5S)-1-acryloyl-5-methylpyrrolidin-3-yl)-4-amino-N—((R)-1-(3-chlorophenyl)ethyl)-6-(prop-1-yn-1-yl)-7H-pyrrolo[2,3-d]pyrimidine-5-carboxamide]",28 nM,
"C=CC(=O)N1C[C@H](n2c(C#CC3CC3)c(C(=O)NC(C)(C)c3ccccc3)c3c(N)ncnc32)C[C@@H]1C [Example 9, 7-((3R,5S)-1-acryloyl-5-methylpyrrolidin-3-yl)-4-amino-6-(cyclopropylethynyl)-N-(2-phenylpropan-2-yl)-7H-pyrrolo[2,3-d]pyrimidine-5-carboxamide]",24 nM,
"C=CC(=O)N1C[C@H](n2c(C#CC)c(C(=O)N[C@H](C)c3ccccc3)c3c(N)ncnc32)C[C@@H]1C [Example 2, 7-((3R,5S)-1-acryloyl-5-methylpyrrolidin-3-yl)-4-amino-N—((R)-1-phenylethyl)-6-(prop-1-yn-1-yl)-7H-pyrrolo[2,3-d]pyrimidine-5-carboxamide]",12 nM,Log 10 of total flux on Day 22 versus control group ([2]; oral 25 mg/kg/day once a day): statistically significantly lower; body weight reduction of −20% or more [3]: not observed
"C=CC(=O)N1C[C@H](n2c(C#CC)c(C(=O)N[C@H](C)c3cc(F)cc(F)c3)c3c(N)ncnc32)C[C@@H]1C [Example 1, 7-(R)-((3R,5S)-1-acryloyl-5-methylpyrrolidin-3-yl)-4-amino-N—((R)-1-(3,5-difluorophenyl)ethyl)-6-(prop-1-yn-1-yl)-7H-pyrrolo[2,3-d]pyrimidine-5-carboxamide]",17 nM,
"C=CC(=O)N1C[C@H](n2c(C#CC)c(C(=O)NC(C)(C)c3ccccc3F)c3c(N)ncnc32)C[C@@H]1C [Example 5, 7-((3R,5S)-1-acryloyl-5-methylpyrrolidin-3-yl)-4-amino-N-(2-(2-fluorophenyl)propan-2-yl)-6-(prop-1-yn-1-yl)-7H-pyrrolo[2,3-d]pyrimidine-5-carboxamide]",14 nM,
"C=CC(=O)N1C[C@H](n2c(C#CC3CC3)c(C(=O)N[C@H](C)c3cccc(F)c3F)c3c(N)ncnc32)C[C@@H]1C [Example 10, 7-((3R,5S)-1-acryloyl-5-methylpyrrolidin-3-yl)-4-amino-6-(cyclopropylethynyl)-N—((R)-1-(2,3-difluorophenyl)ethyl)-7H-pyrrolo[2,3-d]pyrimidine-5-carboxamide]",29 nM,
"C=CC(=O)N1C[C@H](n2c(C#CC)c(C(=O)N[C@H](CC)c3ccccc3)c3c(N)ncnc32)C[C@@H]1C [Example 4, 7-((3R,5S)-1-acryloyl-5-methylpyrrolidin-3-yl)-4-amino-N—((R)-1-phenylpropyl)-6-(prop-1-yn-1-yl)-7H-pyrrolo[2,3-d]pyrimidine-5-carboxamide]",20 nM,
"C=CC(=O)N1C[C@H](n2c(C#CC)c(C(=O)N[C@H](C)c3ccccc3)c3c(N)ncnc32)C[C@@H]1CC [Example 16, 7-((3R,5S)-1-acryloyl-5-ethylpyrrolidin-3-yl)-4-amino-N—((R)-1-phenylethyl)-6-(prop-1-yn-1-yl)-7H-pyrrolo[2,3-d]pyrimidine-5-carboxamide]",9.7 nM,
"C=CC(=O)N1C[C@H](n2c(C#CC(C)(C)OC)c(C(=O)N[C@H](C)c3ccccc3)c3c(N)ncnc32)C[C@@H]1C [Example 13, 7-((3R,5S)-1-acryloyl-5-methylpyrrolidin-3-yl)-4-amino-6-(3-methoxy-3-methylbut-1-yn-1-yl)-N—((R)-1-phenylethyl)-7H-pyrrolo[2,3-d]pyrimidine-5-carboxamide]",23 nM,
"C=CC(=O)N1C[C@H](n2c(C#CC3CC3)c(C(=O)N[C@H](C)c3ccccc3)c3c(N)ncnc32)C[C@@H]1C [Example 11, 7-((3R,5S)-1-acryloyl-5-methylpyrrolidin-3-yl)-4-amino-6-(cyclopropylethynyl)-N—((R)-1-phenylethyl)-7H-pyrrolo[2,3-d]pyrimidine-5-carboxamide]",29 nM,Log 10 of total flux on Day 22 versus control group ([2]; oral 25 mg/kg/day once a day): statistically significantly lower; body weight reduction of −20% or more [3]: not observed
"C=CC(=O)N1C[C@H](n2c(C#CCC)c(C(=O)N[C@H](C)c3ccccc3)c3c(N)ncnc32)C[C@@H]1C [Example 14, 7-((3R,5S)-1-acryloyl-5-methylpyrrolidin-3-yl)-4-amino-6-(but-1-yn-1-yl)-N—((R)-1-phenylethyl)-7H-pyrrolo[2,3-d]pyrimidine-5-carboxamide]",27 nM,
"C=CC(=O)N1C[C@H](n2c(C#CC)c(C(=O)NC(C)(C)c3ccccc3)c3c(N)ncnc32)C[C@@H]1C [Example 3, 7-((3R,5S)-1-acryloyl-5-methylpyrrolidin-3-yl)-4-amino-N-(2-phenylpropan-2-yl)-6-(prop-1-yn-1-yl)-7H-pyrrolo[2,3-d]pyrimidine-5-carboxamide]",25 nM,
"C=CC(=O)N1C[C@H](n2c(C#CC3CC3)c(C(=O)N[C@H](C)c3ccccc3)c3c(N)ncnc32)C[C@@H]1COC [Example 18, 7-((3R,5R)-1-acryloyl-5-(methoxymethyl)pyrrolidin-3-yl)-4-amino-6-(cyclopropylethynyl)-N—((R)-1-phenylethyl)-7H-pyrrolo[2,3-d]pyrimidine-5-carboxamide]",14 nM,
"C=CC(=O)N1C[C@H](n2c(C#CC3CC3)c(C(=O)N[C@H](C)c3ccccc3)c3c(N)ncnc32)C[C@@H]1CC [Example 17, 7-((3R,5S)-1-acryloyl-5-ethylpyrrolidin-3-yl)-4-amino-6-(cyclopropylethynyl)-N—((R)-1-phenylethyl)-7H-pyrrolo[2,3-d]pyrimidine-5-carboxamide]",20 nM,
"C=CC(=O)N1C[C@H](n2c(C#CC)c(C(=O)N[C@@H](c3ccccc3)C(F)(F)F)c3c(N)ncnc32)C[C@@H]1C [Example 8, 7-((3R,5S)-1-acryloyl-5-methylpyrrolidin-3-yl)-4-amino-6-(prop-1-yn-1-yl)-N—((S)-2,2,2-trifluoro-1-phenylethyl)-7H-pyrrolo[2,3-d]pyrimidine-5-carboxamide]",26 nM,
